The structures appear in SMILES notation.

What all share (type): functional
The species entered for experiment [1] is Rattus norvegicus. Description: Percent release of histamine from rat peritoneal cells was determined at 0.1 ug/mL concentration of compound.
Experiment [2] is filed under the species Rattus norvegicus. Description: Percent release of histamine from rat peritoneal cells was determined at 1 ug/mL concentration of compound.
The species entered for experiment [3] is Rattus norvegicus. Description: Percent release of histamine from rat peritoneal cells was determined at 10 ug/mL concentration of compound.
For experiment [4], the system named is Rattus norvegicus. Kind of experiment: Compound was evaluated in vivo for its inflammatory activity in rat paw pretreated with mepyramine (2.5 mg/kg) and methysergide (3 mg/Kg)after administration of compound (1 mg) and percent edema was reported.

Regarding `CC(C)=CCC/C(C)=C/CC/C(C)=C/CC/C(C)=C/CCC1=CC(=O)OC1`, the values for the Histamine release in experiment [1], in experiment [2] and in experiment [3] were 4%, 11% and 30%, respectively. Also, the Supression in experiment [4] is reported as 65%.

(Values after ChEMBL document CHEMBL1152080, “Linear sesterterpenes from the Caribbean sponge Thorecta horridus with inflammatory activity” (1991).)
